Results from US10206394B2, “Herbicidal compounds” (Syngenta Participations AG, priority 2014, dated 2019).
Where two headings read alike, the source gives them in different places.

Assays:
Assay in all cases: Glasshouse assay for herbicidal activity (pre- and post-emergence), percentage phytotoxicity
Type in all cases: in vivo
[1] = test system: Alopecurus myosuroides (ALOMY); conditions: Alopecurus myosuroides, rate 250 g/ha
Outline: (§1)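 Percent injury was estimated by eye on a scale where 0% means no damage and 100% complete damage. Ratings came 15 DAA post-emergence and 20 DAA pre-emergence, with plants held under 16 h light and 65% humidity at 24/18 °C or 20/16 °C day/night.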

Lolium perenne (LOLPE) = conditions: Lolium perenne, rate 250 g/ha
Outline: as §1

Avena fatua (AVEFA) = conditions: Avena fatua, rate 250 g/ha
Outline: as §1

[2] = test system: Echinochloa crus-galli (ECHCG); conditions: Echinochloa crus-galli, rate 250 g/ha
Outline: as §1

[3] = post-emergence, 360 h, POST-emergence, visual score 15 DAA (100%=total damage, 0%=no damage), read-out: Post-emergence herbicidal activity (percentage phytotoxicity) ALOMY POST
[4] = pre-emergence, 480 h, PRE-emergence, visual score 20 DAA (100%=total damage, 0%=no damage), read-out: Pre-emergence herbicidal activity (percentage phytotoxicity) ALOMY PRE
[5] = post-emergence, 360 h, POST-emergence, visual score 15 DAA (100%=total damage, 0%=no damage), read-out: Post-emergence herbicidal activity (percentage phytotoxicity) LOLPE POST
[6] = pre-emergence, 480 h, PRE-emergence, visual score 20 DAA (100%=total damage, 0%=no damage), read-out: Pre-emergence herbicidal activity (percentage phytotoxicity) LOLPE PRE
[7] = post-emergence, 360 h, POST-emergence, visual score 15 DAA (100%=total damage, 0%=no damage), read-out: Post-emergence herbicidal activity (percentage phytotoxicity) AVEFA POST
[8] = pre-emergence, 480 h, PRE-emergence, visual score 20 DAA (100%=total damage, 0%=no damage), read-out: Pre-emergence herbicidal activity (percentage phytotoxicity) AVEFA PRE
[9] = post-emergence, 360 h, POST-emergence, visual score 15 DAA (100%=total damage, 0%=no damage), read-out: Post-emergence herbicidal activity (percentage phytotoxicity) ECHCG POST
[10] = pre-emergence, 480 h, PRE-emergence, visual score 20 DAA (100%=total damage, 0%=no damage), read-out: Pre-emergence herbicidal activity (percentage phytotoxicity) ECHCG PRE

SMILES	pest or weed control at 250 g/ha [1, 3]	pest or weed control at 250 g/ha [1, 4]	pest or weed control at 250 g/ha (Lolium perenne (LOLPE); [5])	pest or weed control at 250 g/ha (Lolium perenne (LOLPE); [6])	pest or weed control at 250 g/ha (Avena fatua (AVEFA); [7])	pest or weed control at 250 g/ha (Avena fatua (AVEFA); [8])	pest or weed control at 250 g/ha [2, 9]	pest or weed control at 250 g/ha [2, 10]
C=C(F)CNC(=O)CC1CC(=O)C(c2c(C)cc(-c3ncc(F)cc3F)cc2C)C1=O (stereo not drawn) [Compound B304]	100%	100%	100%	100%	100%	100%	100%	90%
CCNC(=O)CC1CC(=O)C(c2c(C)cc(-c3ncc(Cl)cn3)cc2C)C1=O (stereo not drawn) [Compound B305]	100%	100%	100%	100%	100%	100%	100%	100%
CCNC(=O)CC1CC(=O)C(c2c(C)cc(-c3ccc(Cl)cn3)cc2C)C1=O (stereo not drawn) [Compound B306]	100%	100%	100%	100%	100%	100%	100%	100%
CCNC(=O)CC1CC(=O)C(c2c(C)cc(-n3cc(Cl)cn3)cc2C)C1=O (stereo not drawn) [Compound B307]	90%	100%	90%	100%	100%	100%	100%	100%
Cc1cc(-n2cc(Cl)cn2)cc(C)c1C1C(=O)CC(CC(=O)NC/C=C/Cl)C1=O (stereo not drawn) [Compound B308]	90%	90%	60%	80%	100%	80%	100%	80%
COCC(C)NC(=O)CC1CC(=O)C(c2c(C)cc(-n3cc(Cl)cn3)cc2C)C1=O (stereo not drawn) [Compound B309]	100%	90%	60%	80%	100%	80%	100%	100%
COCCCNC(=O)CC1CC(=O)C(c2c(C)cc(-n3cc(Cl)cn3)cc2C)C1=O (stereo not drawn) [Compound B310]	90%	90%	70%	90%	100%	80%	100%	90%
C=C(C)CNC(=O)CC1CC(=O)C(c2c(C)cc(-n3cc(Cl)cn3)cc2C)C1=O (stereo not drawn) [Compound B311]	80%	80%	70%	90%	90%	80%	100%	90%
Cc1cc(-n2cc(Cl)cn2)cc(C)c1C1C(=O)CC(CC(=O)NCc2cccc(Br)c2)C1=O (stereo not drawn) [Compound B312]	90%	10%	80%	70%	100%	10%	100%	70%
